Results on three compounds are retold here after publication PMC8395335, “Serotonergic–Muscarinic Interaction within the Prefrontal Cortex as a Novel Target to Reverse Schizophrenia-Related Cognitive Symptoms” (International Journal of Molecular Sciences, 2021).

In one series the test system is MK-801-treated mice. Kind of series: Y-maze test (spontaneous alternations), MK-801-induced deficits. Format: in vivo. Conditions: for Reversal of MK-801-induced disruptions in Y-maze by combined administration: 7 days; for Effect of combined administration on spontaneous alternations in the Y-maze test: MK-801-treated. On the procedure:
Drugs were administered on two different schedules: (1) acute administration of compounds 45 min (WAY100635—5-HT1A antagonist) or 30 min (VU0357017, VU152100, VU0238429, and F15599) before MK-801 (also administered once 30 min before the test in Y-maze or T1 in NOR test); and (2) prolonged administration (once per day for 7 consecutive days) of the compounds and MK-801 with the last administration 24 h before the test (NOR test) or at the day of the test (Y-maze). […] Schedules of administration are presented graphically in Figure 2. The subeffective doses of the compounds for acute administration in the NOR test were chosen based on our previous research (see: [22, 23]) while dose-dependent studies of the activity of the compounds in reversing disruptions in the Y-maze or after prolonged administration along with MK-801 were performed within this study. Different vehicles were used throughout the study: (1) 0.9% NaCl and (2) 10% Tween 80. Vehicles were administered to all animals (e.g., control mice and MK-801-treated mice) on the same schedule as drugs were administered to the appropriate drug-treated groups of mice. Neither solvent exerted effects on animal behavior.
Male Albino Swiss mice (Charles River, Sulzfeld, Germany) weighing 20–25 g at the beginning of the experiments were used in the studies. The animals were housed in a room with a 12:12 h light-dark cycle at a temperature of 22 ± 1 °C with food and water available ad libitum. The experimental groups consisted of 8–10 animals. All drugs were administered intraperitoneally (i.p.) at a volume of 10 mL/kg. The behavioral experiments were performed by an observer who was blinded to the treatment. The procedures were conducted in accordance with the European Communities Council Directive of 22 September 2010 (2010/63/EU) and Polish legislation acts concerning animal experimentation and were approved by the II Local Ethics Committee by the Maj Institute of Pharmacology, Polish Academy of Sciences in Krakow (15/2020, 240/2020).
In acute experiments, the tested compounds (alone or in combination) were administered 30 min before MK-801 (0.3 mg/kg), which was administered 30 min before the test or training trial (T1) in the NOR test. In chronic experiments, the tested compounds (alone or in combination) and MK-801 were administered for seven days. Behavioral tests were performed on the eighth day.
The Y-maze was performed using the methods described by Miedel et al. and Kraeuter et al. with minor modifications. A black, wooden Y-shaped apparatus with equal length arms (labeled A, B, or C) spaced 120 apart was used in the behavioral experiment. Visual clues were placed inside the maze and mounted to the back wall of each arm. The experiment was performed in a well-lit room. The mice were placed in the same starting arm and were allowed to freely explore the maze for 8 min. After each trial, the maze was wiped clean. The sequence and the number of arm entries were recorded to calculate the percentage of spontaneous alternations using the following formula: [(Number of alternations)/(Total arm entries − 2)] × 100. An arm entry was scored if the animal entered the arm with all paws. Consecutive entries into three distinct arms were scored as an alternation (e.g., ACB, but not ACA) in which sequences could overlap (e.g., ACBACABAC represents […] alternations).

Another series can be described thus: in vivo. Details: species or system mice. The conditions noted are these: mouse. On the procedure: The experiment was performed using the methods described by Bridges et al. and in our previous studies.
The pharmacokinetic analysis was performed in the blood and prefrontal cortex. […] Plasma and FC samples were stored at −80 °C until analysis.
The drug was administered at a dose of 0.1 mg/kg; brain and tissue samples were collected 15, 30, 60, and 120 min after administration.
On the day of analysis, frozen whole mouse brain tissues were weighed and homogenized in 1:2 (w/v) volumes of ice-cold acetonitrile containing 0.1% FA and the internal standard mix. Samples were homogenized using a Metal Bead Lysing Matrix, vortexed for 1 min, shaken for 20 min at 4 °C on Thermomixer C, and centrifuged at 14,000× g rpm for 20 min at 4 °C. Finally, 50 µL of supernatant were diluted with 0.1% FA in water (1:1, v/v) and analyzed using HPLC/MS/MS.
The sample extraction of plasma (20 μL) was performed after spiking with the internal standard mix using the protein precipitation method and three volumes of ice-cold acetonitrile containing 0.1% formic acid. The extract was vortexed, incubated on ice for 20 min and centrifuged at 14,000× g rpm for 20 min at 4 °C. The supernatant was diluted with 0.1% FA in water (1:1, v/v) and analyzed by means of HPLC/MS/MS using a QTRAP 4500 (AB Sciex) mass spectrometer in positive ion mode in Multiple Reaction Monitoring (MRM screening) coupled with UHPLC (NEXERA XR, Shimadzu). Chromatographic separation was achieved on a Synergi 4 µm Fusion-RP 80 A 50 × 2 mm (Phenomenex) column at a flow rate of 0.2 mL/min. The gradient program was as follows: 20% B (0.3 min), 20–100% B (1.7 min), 100% B (3 min), 100–20% B (0.1 min), 20% B (2 min), solvent A (95:5:0.1% formic acid in water:methanol) and solvent B (methanol containing 0.1% formic acid). The column temperature was set to 40 °C. Analyst software was used to control the instrument and collect data. The ion transfer tube temperature was 300 °C. The spray voltage, collision energy, declastering potential, and gas parameters were optimized to achieve the maximal response using the test compounds. Selected reaction monitoring was carried out using the transition parameters. Calibration curves were constructed, and a linear response was obtained in the range of 0.25–500 ng/mL (VU357017, VU0152100, and F15599) and 1.25–2500 ng/mL (VU0238429) by spiking known amounts of each compound in blank brain homogenates and plasma. For VU0357017 and F15599 IS VU0152100 was used as internal standard. Sample concentration of internal standard was 100 ng/mL for IS VU0238429 and 50 ng/mL for IS VU0152100.

A further series concerns rats. The arrangement: method as in PMID 19154445. The conditions noted are these: cited from earlier work.
The next series relates to PCP-induced deficits. The arrangement: method as in PMID 20488670. The conditions noted are these: cited from earlier work.
Details of series [1]: method as in PMID 31174329, PMID 19438238. The conditions noted are these: earlier studies; cited from earlier work.
Where [2] appears, read: F15599 0.025 mg/kg with VU0238429 1 mg/kg (subeffective doses).
Setting [3] is: F15599 0.025 mg/kg with VU0357017 1 mg/kg (subeffective doses).
[4] abbreviates: acute, F15599 0.1 mg/kg with VU0238429 5 mg/kg.
[5] abbreviates: acute, F15599 0.1 mg/kg with VU0357017 10 mg/kg.

On to `Cc1cnc(CNCC2(F)CCN(C(=O)c3ccc(F)c(Cl)c3)CC2)nc1` [F15599], for which the “Reversal of MK-801-induced reduction in spontaneous alternations in the Y-maze” value (“Reversal of MK-801-induced reduction” for short) with MK-801-treated mice (7 days with MK-801, 0.025 mg/kg) is “ineffective”; in the series on MK-801-treated mice (7 days with MK-801, 0.05 mg/kg), “ineffective”; in the series on MK-801-treated mice (7 days with MK-801, 0.1 mg/kg), “reversed”; in the series on MK-801-treated mice (acute, 0.05-0.5 mg/kg i.p.), “no efficacy”. The “Reversal of MK-801-induced disruptions in Y-maze by combined administration” value (“Reversal of MK-801-induced disruptions” for short) in the series with MK-801-treated mice (F15599 0.025 mg/kg with VU0152100 0.05 mg/kg (subeffective doses)), in the series on MK-801-treated mice (setting [2]) and with MK-801-treated mice (setting [3]) was “did not reverse” each time. Besides, the “Effect of combined administration on spontaneous alternations in the Y-maze test” value (“Effect of combined administration” for short) in the series with MK-801-treated mice (acute, F15599 0.1 mg/kg with VU0152100 1 mg/kg) was “no effect”; in the series with MK-801-treated mice (setting [4]), “no effect”; in the series on MK-801-treated mice (setting [5]), “no effect”. Moreover, in the series “in vivo” (Albino Swiss), the “Time after administration up to which drug was detected in the frontal cortex” value is listed as “up to 2 h”. Besides, in “in vivo” (Albino Swiss, ip, 0.1 mg/kg), the Tmax is 15 min. The “Tmax PFC (FC)” value in “in vivo” (Albino Swiss, ip, 0.1 mg/kg) was found to be 15 min. The half-life in “in vivo” (Albino Swiss, ip, 0.1 mg/kg) is 120 min; in “in vivo” (ip, 0.1 mg/kg), 35 min. Further, the Cmax stood at 48 ng/mL in the series “in vivo” (Albino Swiss, ip, 0.1 mg/kg, Cmax PFC (FC)) and 27 ng/mL in “in vivo” (Albino Swiss, ip, 0.1 mg/kg, Cmax plasma). For the same compound, the “Doses inducing some adverse effects related to serotonergic syndrome” value with rats is reported as “greater than 0.16 mg/kg”. Also, the “Effect on PCP-induced deficits during the reversal phase of the learning task and in the hole-board test” value in the series with PCP-induced deficits is recorded as “ameliorated”.

For `COc1ccc(CN2C(=O)C(=O)c3cc(OC(F)(F)F)ccc32)cc1` [VU0238429], the “Reversal of MK-801-induced reduction” value was “not” in the series with MK-801-treated mice (7 days with MK-801, 0.5 mg/kg); “not” in the series on MK-801-treated mice (7 days with MK-801, 1 mg/kg); “active” in the series on MK-801-treated mice (7 days with MK-801, 5 mg/kg); “ineffective” in the series on MK-801-treated mice (acute, 5 mg/kg i.p.); “reversed” in the series on MK-801-treated mice (acute, 10 mg/kg i.p.); “reversed” with MK-801-treated mice (acute, 20 mg/kg i.p.). In addition, the “Reversal of MK-801-induced disruptions” value in the series with MK-801-treated mice (setting [2]) is “did not reverse”. Moreover, the “Effect of combined administration” value in the series with MK-801-treated mice (setting [4]) is “no effect”. Also, the “Brain penetration (whole brain)” value in series [1] was ≤ 8%.

Take `CCOC(=O)N1CCC(NCCNC(=O)c2ccccc2C)CC1` [VU0357017]: the “Reversal of MK-801-induced reduction” value is on record as “not” with MK-801-treated mice (7 days with MK-801, 0.5 mg/kg); “not” in the series with MK-801-treated mice (7 days with MK-801, 1 mg/kg); “activity of VU0357017 was observed” in the series on MK-801-treated mice (7 days with MK-801, 5 mg/kg); “No efficacy” with MK-801-treated mice (acute, 1-10 mg/kg i.p.). In addition, the “Reversal of MK-801-induced disruptions” value in the series on MK-801-treated mice (setting [3]) is reported as “did not reverse”. In addition, the “Effect of combined administration” value with MK-801-treated mice (setting [5]) was “no effect”.

As a reminder, the Tmax is the time at which the peak concentration occurs. The half-life is how long it takes for the measured level to halve. The term Cmax denotes the peak of the concentration-time curve.
